{
  "source": "paper doi:10.1101/2024.03.29.587371v1",
  "about": "(biorxiv, 2024)",
  "assay_type_in_all_cases": "biochemical",
  "key": {"AtFBA4 (SUMO-AtFBA4) [1]": {"biological_target": "T1, AtFBA4 (SUMO-AtFBA4) (Arabidopsis thaliana, UniProt F4KGQ0)", "T1 sequence (F4KGQ0 1-393)": "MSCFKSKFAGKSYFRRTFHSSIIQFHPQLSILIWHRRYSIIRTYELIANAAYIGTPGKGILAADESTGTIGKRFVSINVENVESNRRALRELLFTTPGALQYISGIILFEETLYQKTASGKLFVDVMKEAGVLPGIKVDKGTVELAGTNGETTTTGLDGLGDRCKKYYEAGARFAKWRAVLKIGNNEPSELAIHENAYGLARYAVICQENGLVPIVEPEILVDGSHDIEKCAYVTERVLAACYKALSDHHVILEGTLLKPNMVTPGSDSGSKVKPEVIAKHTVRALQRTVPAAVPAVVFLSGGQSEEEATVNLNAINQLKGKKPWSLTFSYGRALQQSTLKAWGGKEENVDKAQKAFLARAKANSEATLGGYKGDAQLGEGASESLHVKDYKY", "test": "coupled NADH assay, activity relative to control", "conditions": "read-out: % residual activity at 5.0 mM"}, "AtFBA5 (SUMO-AtFBA5) [2]": {"biological_target": "T2, AtFBA5 (SUMO-AtFBA5) (Arabidopsis thaliana, UniProt O65581)", "T2 sequence (O65581 1-358)": "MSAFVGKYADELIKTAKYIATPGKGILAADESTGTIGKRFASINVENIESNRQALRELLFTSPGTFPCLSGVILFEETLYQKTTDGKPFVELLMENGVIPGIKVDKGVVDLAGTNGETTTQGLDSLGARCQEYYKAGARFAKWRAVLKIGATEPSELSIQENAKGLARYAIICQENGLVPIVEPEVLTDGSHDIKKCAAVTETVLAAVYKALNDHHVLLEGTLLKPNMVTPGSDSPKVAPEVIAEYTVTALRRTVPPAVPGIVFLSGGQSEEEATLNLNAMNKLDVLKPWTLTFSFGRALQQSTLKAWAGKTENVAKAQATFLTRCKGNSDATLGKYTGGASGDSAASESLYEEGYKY", "test": "coupled NADH assay, activity relative to control"}, "AtFBA4 (SUMO-AtFBA4) [3]": {"biological_target": "T1, AtFBA4 (SUMO-AtFBA4)", "test": "coupled NADH assay at […] nm, FBP saturation curves with inhibitor"}, "AtFBA5 (SUMO-AtFBA5) [4]": {"biological_target": "T2, AtFBA5 (SUMO-AtFBA5)", "test": "coupled NADH assay at […] nm, FBP saturation curves with inhibitor"}},
  "note": "Residues, ends and D or L forms follow the SMILES beside them.",
  "data": [
    {"smiles": "O=C(O)CCC(=O)C(=O)O", "note": "[2-OG]", "values": [
      {"measurement": "remaining activity at 5000 µM", "setting": "AtFBA4 (SUMO-AtFBA4) [1]", "value": "69 ± 2", "unit": "%"}
    ]},
    {"smiles": "O=C(O)C[C@H](O)C(=O)O", "note": "[Malate]", "values": [
      {"measurement": "remaining activity at 5000 µM", "setting": "AtFBA4 (SUMO-AtFBA4) [1]", "value": "68 ± 12", "unit": "%"}
    ]},
    {"smiles": "O=P(O)(O)OP(=O)(O)O", "note": "[PPi]", "values": [
      {"measurement": "% of control activity at 1.0 mM", "setting": "AtFBA5 (SUMO-AtFBA5) [2]; pH 7.5, 250 µM FBP", "value": "144 ± 10", "unit": "%"}
    ]},
    {"smiles": "N[C@@H](Cc1ccc(O)cc1)C(=O)N[C@@H](CC(=O)O)C(=O)O", "note": "[Tyr-Asp] (H-Tyr-Asp-OH)", "values": [
      {"measurement": "remaining activity at 500 µM", "setting": "AtFBA5 (SUMO-AtFBA5) [2]; read-out: % residual activity at 0.50 mM", "value": "82 ± 5", "unit": "%"}
    ]},
    {"smiles": "O=c1c(O)c(-c2ccc(O)cc2O)oc2cc(O)cc(O)c12", "note": "[morin, 3,5,7,2′,4′-pentahydroxyflavone]", "values": [
      {"measurement": "Ki", "setting": "AtFBA4 (SUMO-AtFBA4) [3]", "value": "80 ± 10", "unit": "µM"},
      {"measurement": "Ki", "setting": "AtFBA5 (SUMO-AtFBA5) [4]", "value": "63 ± 4", "unit": "µM"}
    ]}
  ]
}
